From patent US20260083722A1, “BIFUNCTIONAL DEGRADERS COMPRISING ELECTROPHILIC PROTACS THAT ENGAGE DCAF1 AND PHARMACEUTICAL COMPOSITIONS COMPRISING THE SAME” (THE SCRIPPS RESEARCH INSTITUTE, priority 2022, published 2026)

Molecular target: T1, HA-FKBP12 (Homo sapiens, UniProt P62942)
T1 construct: expressed in transfected cells; host or cells: HEK293T
Experiment: HA-FKBP12 abundance by Western blotting in transfected HEK293T cells
Assay type: cell-based
Details: for time after treatment until evidence of HA-FKBP12 degradation: 2 μM each, FLAG-DCAF1-transfected cells; for lowest concentration with evidence of FKBP12 degradation: HEK293T co-expressing HA-FKBP12 and FLAG-DCAF1; for degradation of FKBP12: cells expressing DCAF1-C1113A mutant; for hook effect in HA-FKBP12 degradation: emerging at 5 μM
From the text: (A) Left, western blots showing concentration-dependent effects of YT47R (upper) and YT41R (lower) on FKBP12 abundance in HEK293T cells expressing HA-FBKP12 with or without co-expression of FLAG-DCAF1. Right, quantification of HA-FKBP12 abundance in the indicated experimental groups. (B) Left, western blots showing effects of YT47R versus YT47S (upper) and YT41R versus YT41S (lower) on FKBP12 abundance in HEK293T cells co-expressing HA-FBKP12 and FLAG-DCAF1. Right, quantification of HA-FKBP12 abundance in the indicated experimental groups. (C) Western blots showing effects of YT47R (left blots) and YT41R (right blots) on FKBP12 abundance in HEK293T cells co-expressing HA-FBKP12 and either FLAG-DCAF1-WT or FLAG-DCAF1-C1113A mutant. Quantification of HA-FKBP12 abundance in the indicated experimental groups is shown in the adjacent bar graphs. For (A-C), FKBP12 abundance was determined at 24 h post-treatment with compounds, and data are mean values±SEM for three independent experiments. Statistical significance was calculated with unpaired two-tailed Student's t-tests comparing YT41R/YT47R- and DMSO-treated cells. ***P<0.001, ****P<0.0001.
(A) Left, western blots showing effects of proteasome (MG132) and Neddylation (MLN4924) inhibitors (1 h pre-treatment) on YT47R- and YT41R-dependent degradation of FKBP12 in HEK293T cells co-expressing HA-FBKP12 and FLAG-DCAF1. FKBP12 abundance was determined at 24 h post-treatment with YT47R or YT41R. Right, quantification of HA-FKBP12 abundance in the indicated experimental groups. (B) Left, western blots showing effects of the FKBP12 ligand SLF (20 μM) or DCAF1 ligand MY-11B (1 h pre-treatment with 20 μM SLF or 5 μM MY-11B) on YT47R- and YT41R-dependent degradation of FKBP12 in HEK293T cells co-expressing HA-FBKP12 and FLAG-DCAF1. FKBP12 abundance was determined at 24 h post-treatment with YT47R or YT41R. Right, quantification of HA-FKBP12 abundance in the indicated experimental groups. (C) Left, western blots showing effects of MY-11A or MY-11B (5 μM, 1 h pre-treatment) on YT47R- and YT41R-dependent degradation of FKBP12 in HEK293T cells co-expressing HA-FBKP12 and FLAG-DCAF1. FKBP12 abundance was determined at 24 h post-treatment with YT47R or YT41R. Right, quantification of HA-FKBP12 abundance in the indicated experimental groups. For (A-C), data are mean values±SEM for three-five independent experiments. Statistical significance was calculated with unpaired two-tailed Student's t-tests comparing YT41R/YT47R- and DMSO-treated cells. ****P<0.0001.
Figure S3. Concentration-dependent degradation of FKBP12 by DCAF1-directed electrophilic PROTACs. Top, western blots showing concentration-dependent effects of YT47R and YT41R on FKBP12 abundance in HEK293T cells co-expressing HA-FBKP12 and FLAG-DCAF1. Data are mean values±SEM for four independent experiments. Statistical significance was calculated with unpaired two-tailed Student's t-tests comparing YT41R/YT47R- and DMSO-treated cells. *P<0.1, **P<0.01, ***P<0.001, ****P<0.0001.
Figure S4. Time-dependent degradation of FKBP12 by DCAF1-directed electrophilic PROTACs. Top, western blots showing time-dependent effects of YT47R and YT41R (2 μM each) on FKBP12 abundance in HEK293T cells co-expressing HA-FBKP12 and FLAG-DCAF1. Data are mean values±SEM for four independent experiments. Statistical significance was calculated with unpaired two-tailed Student's t-tests comparing YT41R/YT47R- and DMSO-treated cells. ****P<0.0001.
We next treated HEK293T cells co-transfected with FLAG epitope-tagged full length DCAF1 (a.a.'s 1-1507) and HA (hemagglutinin) epitope-tagged FKBP12 with a concentration range of YT41R or YT47R and, after 24 h, measured HA-FKBP12 abundance by Western blotting.

[1] = HEK293T cells transfected only with HA-FKBP12, 24 h
[2] = HEK293T co-transfected with FLAG-DCAF1 and HA-FKBP12, 24 h

T1 sequence (P62942 whole entry): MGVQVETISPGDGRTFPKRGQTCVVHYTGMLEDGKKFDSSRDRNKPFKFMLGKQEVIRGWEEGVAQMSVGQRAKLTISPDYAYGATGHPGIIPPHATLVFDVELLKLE

## C=CC(=O)C1C[C@H](c2ccc(C(=O)NCCOCCOCCNC(=O)COc3cccc([C@@H](CCc4ccc(OC)c(OC)c4)OC(=O)[C@@H]4CCCCN4C(=O)C(=O)C(C)(C)CC)c3)cc2)[C@@H]1C(=O)Nc1cccc2cccnc12 (stereo partly drawn) [YT41R]
  time after treatment until evidence of HA-FKBP12 degradation: ~24 h
  lowest concentration with evidence of FKBP12 degradation: 0.25 µM
  degradation of FKBP12: did not promote the degradation
  hook effect in HA-FKBP12 degradation: possible modest hook effect
[1]
  degradation of HA-FKBP12: not
[2]
  degradation of HA-FKBP12: Robust concentration-dependent degradation

## C=CC(=O)N1C[C@H](c2ccc(C(=O)NCCOCCOCCOCCNC(=O)COc3cccc([C@@H](CCc4ccc(OC)c(OC)c4)OC(=O)[C@@H]4CCCCN4C(=O)C(=O)C(C)(C)CC)c3)cc2)[C@@H]1C(=O)Nc1cccc2cccnc12 [YT47R]
  time after treatment until evidence of HA-FKBP12 degradation: ~24 h
  lowest concentration with evidence of FKBP12 degradation: 0.25 µM
  degradation of FKBP12: did not promote the degradation
  hook effect in HA-FKBP12 degradation: possible modest hook effect
[1]
  degradation of HA-FKBP12: not
[2]
  degradation of HA-FKBP12: Robust concentration-dependent degradation
